pIC50: −log10 of the molar value.
Tests used:
in vivo = conditions: mouse, maximum tolerated dose, single intravenous dose, healthy mice, survival and weights recorded up to 14 days
Description: The maximum tolerated dose (herein after MTD) is defined as the maximum amount of a given drug which can be administered acutely (i.e. in one intraperitoneal, intravenous, subcutaneous or oral single dose) to healthy animals, i.e. animals not grafted with tumors. In this assay, compounds were administered intravenously. The survival times and weights of the animals were recorded up to 14 days post injection. Five different doses of each compound were used for the determination of the MTD index. Each experimental group comprised 3 mice for the determination of the MTD (expressed in mg/kg).

[1] = tested on: six human cancer cell lines (prostate, glioma, pancreas, colon, lung, and breast cancers); assay: MTT test of overall cell growth, mean of six human cancer cell lines; format: cell-based; conditions: 72 hours of incubation, mean of the six human cancer cell lines, range of molar concentrations giving 50% inhibition of overall tumor cell growth
Description: MTT tests were performed in order to rapidly, i.e. within 5 days, measure the effect of compounds of this invention on the overall cell growth. The test measured the number of metabolically active living cells that were able to transform the yellow product 3-(4,5-dimethylthiazol-2-yl)-2,5-diphenyl tetrazolium bromide (herein referred as MTT) into the blue product formazan dye by mitochondrial reduction. The amount of formazan obtained at the end of the experiment, measured by means of a spectrophotometer, is directly proportional to the number of living cells.
Six human cancer cell lines described in table 7 were used in the following MTT tests. These cancer cell lines cover six histological cancer types, being prostate, glioma, pancreas, colon, lung, and breast cancers.
To perform the assay, cells were allowed to grow in 96-well micro-wells with a flat bottom with an amount of 100 μl of cell suspension per well with 1,000 to 4,000 cells/well depending on the cell type used. Each cell line was seeded in a well known MEM 10% serum culture medium.
The detailed experimental procedure was the following: after a 24-hour period of incubation at 37° C., the culture medium was replaced by 100 μl of fresh medium in which the tested compound was previously dissolved, at the following molar concentrations: 10^−9 M, 5.10^−9 M, […], 10^−7 M, 5.10^−7 M, 10^−6 M, 5.10^−6 M, and […]. Each experiment was repeated 6 times.
After 72 hours of incubation at 37° C. with (experimental conditions) or without (control condition) the compound to be tested, the medium was replaced by 100 μl MTT dissolved in RPMI (1640 without phenol red) at a concentration of 1 mg/ml. The micro-wells were subsequently incubated during 3 hours at 37° C. and centrifuged at 400 g during 10 minutes. MTT was removed and formazan crystals formed were dissolved in 100 μl DMSO. The micro-wells were shaken for 5 minutes and read on a spectrophotometer at wavelengths of 570 nm (maximum formazan absorbance) and 630 nm (background noise).
For each experimental condition, the mean optical density was calculated, allowing the determination of the percentage of remaining living cells in comparison to the control.

[2] = tested on: U-373MG (apoptosis-sensitive cancer cells); assay: Cellular imaging (computer-assisted phase-contrast microscopy): cell migration and global growth ratio; format: cell-based, human; conditions: 100 nM; for Ratio GGRtreated cells/GGRcontrol cells: 72 h, global growth ratio; for effect on cell migration: filmed for 72 h
Description: (§1) A cellular imaging approach (Debeir et al., Cytometry 60:29-40, 2004; Debeir et al., IEEE Trans Med Imaging 24:697-711, 2005) was used to investigate whether the isocarbostyril alkaloid derivatives of the present invention were able to impair cell proliferation and cell migration in apoptosis-sensitive (U-373MG—see Table 7) as well as apoptosis-resistant (PC3—see Table 7) cancer cells. Cellular imaging relied on the use of computer-assisted phase-contrast microscopy making possible to film the behavior of living cells in culture dishes for several days.
(§2) Cells were seeded in 25-cm^2 at a low density, treated or not with the compounds of the present invention (at a concentration of 100 nM) and filmed thereafter for a period of 72 h. The analysis of the films was performed by two operators, working independently. The effect on cell migration was characterized as +++ (high effect: cell migration of most cells is drastically altered for most of the duration of the film), ++ (medium effect: compound altering cell migration of an important proportion of the cells although less drastically), + (low effect: compound affecting cell migration of a small part of the cell population, or only for a limited part of the 72 h incubation), − (no effect: as compared to the control conditions, no difference is observed). The effect on the overall growth was measured by counting the number of cells on the first (Oh) and the last image (72 h) of each film. The global growth ratio (GGR) was then deduced by dividing the number of cells on the last image by the number of cells on the first image. The ratio GGRtreated cells/GGRcontrol cells, was further calculated thereby obtaining a value that describes the effect of compounds of the present invention on the overall cell growth.

[3] = tested on: PC3 (apoptosis-resistant cancer cells); assay: as above; format: cell-based, human; conditions: PC3, 100 nM; for Ratio GGRtreated cells/GGRcontrol cells: 72 h, global growth ratio; for effect on cell migration: filmed for 72 h
Description: as §1, §2

SMILES | MTD at 14 days (in vivo) [mg/kg] | pIC50 [1] | Ratio GGRtreated cells/GGRcontrol cells [2] | effect on cell migration [2] | Ratio GGRtreated cells/GGRcontrol cells [3] | effect on cell migration [3]
O=C1N[C@@H]2C(=C[C@H](O)[C@@H](O)[C@H]2OS(=O)(=O)[O-])c2cc3c(c(O)c21)OCO3.[Na+] [Compound 1, (2S,3R,4S,4aR)-2,3,7-trihydroxy-(1,3)dioxolo(4,5-j)-6-oxo-2,3,4,4a,5,6-hexahydrophenanthridin-4-yl sodium sulfate] | > 80 | 5.30 to 6.00 |  |  |  | 
CCOC(=O)COc1c2c(cc3c1C(=O)N[C@@H]1C3=C[C@H](OC(C)=O)C(OC(C)=O)[C@H]1OC(C)=O)OCO2 (stereo partly drawn) [Compound 2, ethyl ({(2S,3R,4S,4aR)-2,3,4-tris[(methylcarbonyl)oxy]-(1,3)dioxolo(4,5-j)-6-oxo-2,3,4,4a,5,6-hexahydrophenanthridin--7-yl}oxy)acetate] |  | < 5.00 |  |  |  | 
CCOC(=O)COc1c2c(cc3c1C(=O)N(CC(=O)OCC)[C@@H]1C3=C[C@H](OC(C)=O)C(OC(C)=O)[C@H]1OC(C)=O)OCO2 (stereo partly drawn) [Compound 3, ethyl [(2S,3R,4S,4aR)-2,3,4-tris[(methylcarbonyl)oxy]-(1,3)dioxolo(4,5-j)-7-(2-ethoxy-2-oxoethoxy)-6-oxo-2,3,4,4a,5,6-hexahydrophenanthridin--5(3H)-yl]acetate] |  | < 5.00 |  |  |  | 
CC(=O)O[C@@H]1[C@H](OC(C)=O)[C@@H](OC(C)=O)C=C2c3cc4c(c(O)c3C(=S)N[C@H]21)OCO4 [Compound 4, (2S,3R,4S,4aR)-7-hydroxy-(1,3)dioxolo(4,5-j)-6-thioxo-2,3,4,4a,5,6-hexahydrophenanthridin--2,3,4-triyl triacetate] | 40 | 5.30 to 6.00 |  |  |  | 
COC(=O)COc1c2c(cc3c1C(=O)N[C@@H]1C3=C[C@H](O)[C@@H](O)[C@H]1O)OCO2 [Compound 5, methyl {[(2S,3R,4S,4aR)-2,3,4-trihydroxy-(1,3)dioxolo(4,5-j)-6-oxo-3,4,4a,5-tetrahydrophenanthridin-6(2H)-7-yl]oxy}acetate] |  | 5.00 to 5.30 |  |  |  | 
O=C(O)COc1c2c(cc3c1C(=O)N[C@@H]1C3=C[C@H](O)[C@@H](O)[C@H]1O)OCO2 [Compound 6, {[(2S,3R,4S,4aR)-2,3,4-trihydroxy-(1,3)dioxolo(4,5-j)-6-oxo-3,4,4a,5-tetrahydrophenanthridin-6(2H)-7-yl]oxy}acetic acid] |  | 5.00 to 5.30 |  |  |  | 
CC(=O)O[C@@H]1[C@H](OC(C)=O)[C@@H](OC(C)=O)C=C2c3cc4c(c(OCc5ccc6ccccc6c5)c3C(=O)N[C@H]21)OCO4 [Compound 7, (2S,3R,4S,4aR)-7-[(2-naphthylmethoxy]-(1,3)dioxolo(4,5-j)-6-oxo-2,3,4,4a,5,6-hexahydrophenanthridin-2,3,4-triyl triacetate] |  | 5.30 to 6.00 |  |  |  | 
O=C1N[C@@H]2C(=C[C@H](O)[C@@H](O)[C@H]2O)c2cc3c(c(OCc4ccc5ccccc5c4)c21)OCO3 [Compound 8] | > 80 | 5.30 to 6.00 |  |  |  | 
O=C1c2c(cc3c(c2OCc2ccccc2)OCO3)C2=C[C@H](O)[C@@H](O)[C@@H](O)[C@@H]2N1Cc1ccccc1 [Compound 9, (2S,3R,4S,4aR)-2,3,4-trihydroxy-7-[benzyloxy]-5-benzyl-(1,3)dioxolo(4,5-j)-3,4,4a,5-tetrahydrophenanthridin-6(2H)-one] | 40 | < 5.00 |  |  |  | 
CC(=O)Oc1c2c(cc3c1C(=O)N[C@@H]1C3=C[C@H](OC(C)=O)[C@@H](O)[C@H]1O)OCO2 [Compound 10, (2S,3S,4S,4aR)-3,4-dihydroxy-(1,3)dioxolo(4,5-j)-6-oxo-2,3,4,4a,5,6-hexahydrophenanthridin--2,7-diyl diacetate] | > 80 | 6.30 to 7.00 | 1.06 | − | 1.38 | +
CC(=O)O[C@H]1C=C2c3cc4c(c(O)c3C(=O)N[C@H]2[C@H](O)[C@@H]1O)OCO4 [Compound 11, (2S,3S,4S,4aR)-3,4,7-trihydroxy-(1,3)dioxolo(4,5-j)-6-oxo-2,3,4,4a,5,6-hexahydrophenanthridin--2-yl acetate] | > 80 | 6.30 to 7.00 | 0.42 | ++ | 0.40 | +++
O=C(O[C@H]1C=C2c3cc4c(c(O)c3C(=O)N[C@H]2[C@H](O)[C@@H]1O)OCO4)c1ccccc1 [Compound 13, (2S,3S,4S,4aR)-3,4,7-trihydroxy-(1,3)dioxolo(4,5-j)-6-oxo-2,3,4,4a,5,6-hexahydrophenanthridin--2-yl benzoate] | 10 | 7.30 to 8.00 | 0.45 | ++ | 0.31 | +++
CCC(=O)O[C@H]1C=C2c3cc4c(c(O)c3C(=O)N[C@H]2[C@H](O)[C@@H]1O)OCO4 [Compound 19, (2S,3S,4S,4aR)-3,4,7-trihydroxy-(1,3)dioxolo(4,5-j)-6-oxo-2,3,4,4a,5,6-hexahydrophenanthridin-2-yl propionate] | 40 | 7.30 to 8.00 |  |  |  | 
CC(C)C(=O)O[C@H]1C=C2c3cc4c(c(O)c3C(=O)N[C@H]2[C@H](O)[C@@H]1O)OCO4 [Compound 20, (2S,3S,4S,4aR)-3,4,7-trihydroxy-(1,3)dioxolo(4,5-j)-6-oxo-2,3,4,4a,5,6-hexahydrophenanthridin-2-yl 2-methylpropanoate] | 40 | 7.30 to 8.00 |  |  |  | 
O=C1N[C@@H]2C(=C[C@H](O)[C@@H](O)[C@H]2O)c2cc3c(c(O)c21)OCO3 [narciclasine, reference compound] |  | 7.30 to 8.00 |  |  |  | 

Reference: patent publication US20100076005A1, “ISOCARBOSTYRIL ALKALOID DERIVATIVES HAVING ANTI-PROLIFERATIVE AND ANTI-MIGRATORY ACTIVITIES” (Unibioscreen SA, priority 2006, published 2010)
